Consider eight compounds from patent US20160272645A1, “Heterocyclic Compounds and Methods of Use” (MEDIVATION TECHNOLOGIES, INC., priority 2013, published 2016).

In one experiment the target is T1, PI3Kδ (Homo sapiens, UniProt O00329).
T1 construct: purchased Reaction Biology Corporation
Nature of the experiment: PI3Kδ kinase profiling, HTRF PIP3 displacement assay (Reaction Biology). It counts as biochemical. The note with it: ATP 10 μM; for inhibition at 0.01 µM: compound 0.01 μM, read-out: PI3Kδ @ 0.01 μM (% Inh); for inhibition at 0.1 µM: compound 0.1 μM, read-out: PI3Kδ @ 0.1 μM (% Inh).

Experiment [1] relates to CD69+B220+ cells (mouse spleen cells). Briefly: B cell activation assay (IgD-stimulated CD69 on B220+ spleen cells, FACS). To be noted: 100 nM test compound, 30 min, then IgD 3 μg/mL 4 h, read-out: CD69 @ 100 nM (% Inh). The experiment is classed as cell-based. As for the experimental part:
1 Female mouse approximately 2 months old was euthanized with CO2 and the spleen removed. The tissue was homogenized with a polished glass microscope slide. The cells were collected in 5 mL complete medium (RPMI+10% FBS+pen/strep), placed in a 15 mL falcon tube and centrifuged at 500×g for 5 min. The supernatant was discarded and the pellet was resuspended in 3 mL of ACK lysis buffer (NH4Cl 0.17M, KHCO3 10 mM, EDTA-Na2 0.1 mM, pH 7.2), incubated at 37° C. for 5 min. 2 mL complete medium was added and the mixture centrifuged at 500×g for 5 min. The supernatant was discarded and the pellet resuspended in 1 mL complete medium. The mixture was passed through a […] cell strainer and collect in 50 mL falcon tube. Enough medium was added to have a total of 10 mL. The cells were counted and seeded in 24 or 48-well plate in 1 mL complete medium at 10^6 cells/mL. The plate was placed in a 37° C. incubator for 15 min. The cells were treated for 30 min at 37° C. with 100 nM test compound dissolved in 100% DMSO. 3 μL IgD (Accurate chemical and scientific corp.) was added at a final concentration of 3 μg/mL and the mixture incubated at 37° C. for 4 h. The cells were collected in 1.5 mL eppendorf tubes, centrifuged at 500×g for 5 min and then resuspended in 100 μL of PBS+2% FBS. The following antibodies were added: α-B220 PE (pharmingen #553090), α-CD69 APC (pharmingen #60689), live/dead fixable aqua dead cell stain kit (life technologies # L34957) all at 1:300, and the mixture incubated for 15 min at 4° C. in the dark. To this was added 900 μL of PBS+2% FBS and the mixture centrifuged at 500×g for 5 min. The supernatant was removed and the pellet resuspended in 300 μL of PBS+2% FBS and mixed well. The mixture was transferred to a cytometer tube. The samples were run in the FACS Canto II cytometer and quantified by the number of CD69+B220+ cells as a percentage of the total number of B220+ alive cells.

For the next experiment, the target named is T2, BTK (Homo sapiens, UniProt Q06187).
T2 construct: purchased Reaction Biology Corporation
T2 sequence (Q06187 whole entry): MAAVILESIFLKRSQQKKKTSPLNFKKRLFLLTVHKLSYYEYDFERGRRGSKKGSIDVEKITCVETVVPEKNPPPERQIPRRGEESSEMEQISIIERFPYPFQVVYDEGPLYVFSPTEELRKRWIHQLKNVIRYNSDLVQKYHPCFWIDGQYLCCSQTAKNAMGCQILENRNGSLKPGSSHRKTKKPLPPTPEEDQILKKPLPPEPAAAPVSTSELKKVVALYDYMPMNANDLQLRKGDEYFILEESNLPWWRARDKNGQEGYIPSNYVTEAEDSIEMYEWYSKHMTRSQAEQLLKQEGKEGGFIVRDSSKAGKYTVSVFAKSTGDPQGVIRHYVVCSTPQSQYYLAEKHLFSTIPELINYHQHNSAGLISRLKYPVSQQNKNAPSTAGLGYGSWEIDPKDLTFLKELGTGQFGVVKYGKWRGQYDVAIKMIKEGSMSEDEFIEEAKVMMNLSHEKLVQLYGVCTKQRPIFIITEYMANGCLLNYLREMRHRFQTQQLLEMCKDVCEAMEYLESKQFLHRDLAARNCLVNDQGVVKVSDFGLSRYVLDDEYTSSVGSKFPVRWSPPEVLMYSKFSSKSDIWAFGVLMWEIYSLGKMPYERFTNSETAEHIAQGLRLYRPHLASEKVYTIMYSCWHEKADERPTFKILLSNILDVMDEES
Nature of the experiment: BTK kinase profiling, HotSpot radiometric assay (Reaction Biology). The experiment is classed as biochemical. The note with it: ATP 10 μM; for inhibition at 0.01 µM: compound 0.01 μM, read-out: BTK @ 0.01 μM (% Inh); for inhibition at 0.1 µM: compound 0.1 μM, read-out: BTK @ 0.1 μM (% Inh). As for the experimental part: Compounds of the invention were profiled in a 10 dose IC50 panel against BTK and PI3Kδ, both provided by Reaction Biology Corporation.
BTK assay: In vitro profiling protein kinases was performed using the “HotSpot” assay platform. Briefly, specific kinase/substrate pairs along with required cofactors were prepared in reaction buffer. Compounds were prepared as 10 mM stock solutions in DMSO. Compounds were delivered into the reaction, followed 15-20 minutes later by addition of a mixture of ATP (Sigma, St. Louis Mo.) and ^33P ATP (Perkin Elmer, Waltham Mass.) to a final concentration of 10 μM. Reactions were carried out at RT for 120 min, followed by spotting of the reactions onto P81 ion exchange filter paper (Whatman Inc., Piscataway, N.J.). Unbound phosphate was removed by extensive washing of filters in 0.75% Phosphoric acid. […] ICso values and curve fits were obtained using Prism (GraphPad Software). Buffer Conditions: 20 mM Hepes (pH 7.5), 10 mM MgCl2, 1 mM EGTA, 0.02% Brij35, 0.02 mg/mL BSA, 0.1 mM Na3VO4, 2 mM DTT, 1% DMSO.

T1 sequence (O00329 whole entry): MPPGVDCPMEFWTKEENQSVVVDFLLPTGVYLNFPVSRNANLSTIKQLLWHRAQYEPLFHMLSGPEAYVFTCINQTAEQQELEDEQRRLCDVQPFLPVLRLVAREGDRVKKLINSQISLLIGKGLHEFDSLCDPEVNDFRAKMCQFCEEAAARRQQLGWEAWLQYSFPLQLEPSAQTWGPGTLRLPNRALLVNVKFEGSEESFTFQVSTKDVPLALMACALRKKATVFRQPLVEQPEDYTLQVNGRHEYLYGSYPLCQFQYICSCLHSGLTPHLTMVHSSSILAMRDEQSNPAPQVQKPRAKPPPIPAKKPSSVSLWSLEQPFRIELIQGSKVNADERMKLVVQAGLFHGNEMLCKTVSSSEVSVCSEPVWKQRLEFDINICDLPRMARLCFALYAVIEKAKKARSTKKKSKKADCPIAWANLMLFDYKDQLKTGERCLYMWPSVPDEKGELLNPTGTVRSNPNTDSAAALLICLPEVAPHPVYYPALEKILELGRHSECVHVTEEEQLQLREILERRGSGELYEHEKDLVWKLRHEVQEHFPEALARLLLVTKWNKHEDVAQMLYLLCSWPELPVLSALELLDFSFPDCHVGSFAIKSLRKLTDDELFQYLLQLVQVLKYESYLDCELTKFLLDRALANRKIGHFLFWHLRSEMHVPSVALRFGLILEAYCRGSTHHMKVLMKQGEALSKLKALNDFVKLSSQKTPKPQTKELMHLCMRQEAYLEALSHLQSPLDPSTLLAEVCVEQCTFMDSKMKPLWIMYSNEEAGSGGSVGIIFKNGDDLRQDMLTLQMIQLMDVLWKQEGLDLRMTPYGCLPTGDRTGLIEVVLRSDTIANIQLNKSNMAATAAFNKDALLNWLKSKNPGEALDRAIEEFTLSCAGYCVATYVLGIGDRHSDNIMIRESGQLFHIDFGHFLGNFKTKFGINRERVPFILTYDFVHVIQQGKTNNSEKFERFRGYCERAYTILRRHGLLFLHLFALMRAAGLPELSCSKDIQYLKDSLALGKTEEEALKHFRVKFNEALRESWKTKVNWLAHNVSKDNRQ
T1 sequence (P27986 whole entry partner): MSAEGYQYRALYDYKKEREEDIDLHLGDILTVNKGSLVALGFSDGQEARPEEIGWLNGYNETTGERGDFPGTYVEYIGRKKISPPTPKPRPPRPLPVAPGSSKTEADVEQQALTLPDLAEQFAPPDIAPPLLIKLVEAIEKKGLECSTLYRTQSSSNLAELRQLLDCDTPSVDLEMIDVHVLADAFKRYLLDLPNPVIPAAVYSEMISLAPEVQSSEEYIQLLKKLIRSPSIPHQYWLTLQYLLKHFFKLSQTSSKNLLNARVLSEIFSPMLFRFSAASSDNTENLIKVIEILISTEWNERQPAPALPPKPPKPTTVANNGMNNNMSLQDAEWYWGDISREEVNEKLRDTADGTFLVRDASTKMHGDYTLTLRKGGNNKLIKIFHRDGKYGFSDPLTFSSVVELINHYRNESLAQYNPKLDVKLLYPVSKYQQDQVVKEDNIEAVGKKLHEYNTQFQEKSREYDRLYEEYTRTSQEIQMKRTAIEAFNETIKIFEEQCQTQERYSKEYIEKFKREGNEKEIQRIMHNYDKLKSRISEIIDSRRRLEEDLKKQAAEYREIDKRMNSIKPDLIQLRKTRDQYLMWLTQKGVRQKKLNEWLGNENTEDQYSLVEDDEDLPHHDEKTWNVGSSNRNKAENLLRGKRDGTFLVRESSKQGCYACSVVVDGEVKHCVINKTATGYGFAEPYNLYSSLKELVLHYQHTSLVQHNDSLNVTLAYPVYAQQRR

Regarding `Nc1ncnc2c1c(-c1cc(O)cc(F)c1)nn2CCNCc1ccccc1` [Compound 4, 3-{4-amino-1-[2-(benzylamino)ethyl]-1H-pyrazolo[3,4-d]pyrimidin-3-yl}-5-fluorophenol], the inhibition at 0.01 µM at PI3Kδ was 1.78%; at BTK it was -1.37%. The inhibition at 0.1 µM on PI3Kδ turned out to be 68%; in experiment [1], 39.1 ± 7.85%; on BTK, 14.8%.

For the compound `C=CC(=O)N(CCn1cc(-c2ccc(Cl)c(O)c2)c2c(N)ncnc21)Cc1ccc(F)cc1` [Compound 13, N-{2-[4-amino-5-(4-chloro-3-hydroxyphenyl)-7H-pyrrolo[2,3-d]pyrimidin-7-yl]ethyl}-N-[(4-fluorophenyl)methyl]prop-2-enamide], the figures for the inhibition at 0.01 µM on PI3Kδ and on BTK were 14% and 95.6%, respectively. For the same compound, the inhibition at 0.1 µM was 43% on PI3Kδ, -165 ± 63% in experiment [1] and 98.6% at BTK.

Turning to `C=CC(=O)N(CCn1nc(-c2ccc(Cl)c(O)c2)c2c(N)ncnc21)Cc1ccc(F)cc1` [Compound 14, N-{2-[4-amino-3-(4-chloro-3-hydroxyphenyl)-1H-pyrazolo[3,4-d]pyrimidin-1-yl]ethyl}-N-[(4-fluorophenyl)methyl]prop-2-enamide], the inhibition at 0.01 µM is 24.8% at PI3Kδ and 86.5% on BTK. For the same compound, the inhibition at 0.1 µM on PI3Kδ was 55%; in experiment [1], -135 ± 55.8%; at BTK it was 96.1%.

For the compound `C=CC(=O)N(CCn1nc(-c2ccc(Cl)c(O)c2)c2c(N)ncnc21)Cc1ccc(Cl)cc1` [Compound 15, N-{2-[4-amino-3-(4-chloro-3-hydroxyphenyl)-1H-pyrazolo[3,4-d]pyrimidin-1-yl]ethyl}-N-[(4-chlorophenyl)methyl]prop-2-enamide], the inhibition at 0.01 µM on PI3Kδ worked out at 7.57%; at BTK, 48.5%. Also, the results for the inhibition at 0.1 µM (at PI3Kδ; in experiment [1]; at BTK) were 31.1%, -103 ± 45.4% and 92.1%, respectively.

Turning to `C=CC(=O)N(CCn1nc(-c2ccc(Cl)c(O)c2)c2c(N)ncnc21)Cc1ccc(OC)cc1` [Compound 17, N-{2-[4-amino-3-(4-chloro-3-hydroxyphenyl)-1H-pyrazolo[3,4-d]pyrimidin-1-yl]ethyl}-N-[(4-methoxyphenyl)methyl]prop-2-enamide], the inhibition at 0.01 µM on PI3Kδ turned out to be 13.6%; at BTK, 90.3%. The inhibition at 0.1 µM is 41.1% on PI3Kδ, -61.1 ± 47.1% in experiment [1] and 96.2% on BTK.

As to `C=CC(=O)N(CCn1nc(-c2cc(F)c3c(c2)NCCO3)c2c(N)ncnc21)Cc1ccc(Cl)cc1` [Compound 18, N-{2-[4-amino-3-(8-fluoro-3,4-dihydro-2H-1,4-benzoxazin-6-yl)-1H-pyrazolo [3,4-d]pyrimidin-1-yl]ethyl}-N-[(4-chlorophenyl)methyl]prop-2-enamide], the values for the inhibition at 0.01 µM on PI3Kδ and on BTK were 20.8% and 62.5%, respectively. The values for the inhibition at 0.1 µM (on PI3Kδ; in experiment [1]; at BTK) were 23.4%, -7.39 ± 6.26% and 93.1%, respectively.

On to `C=CC(=O)N(CCn1nc(-c2ccc(Cl)c(O)c2)c2c(N)ncnc21)Cc1ccco1` [Compound 20, N-{2-[4-amino-3-(4-chloro-3-hydroxyphenyl)-1H-pyrazolo[3,4-d]pyrimidin-1-yl]ethyl}-N-(furan-2-ylmethyl)prop-2-enamide], for which the values for the inhibition at 0.01 µM at PI3Kδ and at BTK were 17.1% and 90.3%, respectively. Further, the inhibition at 0.1 µM on PI3Kδ is 40.6%; in experiment [1], -82 ± 14.7%; at BTK, 95.4%.

Consider `Nc1ncnc2c1c(-c1cc(O)c(F)c(F)c1)nn2CCNc1ncccn1` [Compound 21, 5-(4-amino-1-{2-[(pyrimidin-2-yl)amino]ethyl}-1H-pyrazolo[3,4-d]pyrimidin-3-yl)-2,3-difluorophenol], for which the inhibition at 0.01 µM at PI3Kδ is 8.59%; at BTK, 9.64%. Also, the figures for the inhibition at 0.1 µM (at PI3Kδ; in experiment [1]; at BTK) were 56.6%, 18.2 ± 2.92% and 37.1%, respectively.
